In ChEMBL document CHEMBL2401646 (Bioorg Med Chem Lett, 2013):
The source made the active and inactive calls. The calls are words filed in the database; no cut-off is given here.

How the values were obtained:
MKN-45 [1] = experiment: Antiproliferative activity against human MKN45 cells after 3 days by CellTiter-Glo assay; type: functional, cell-based; conditions: MKN-45, 72 h
Homo sapiens [2] = organism: Homo sapiens; experiment: Ratio of IC50 for cMET Y1230H mutant (unknown origin) to IC50 for wild type cMET (unknown origin)
Homo sapiens [3] = organism: Homo sapiens; experiment: Ratio of IC50 for cMET Y1230C mutant (unknown origin) to IC50 for wild type cMET (unknown origin)
[4] = Permeability of the compound at pH 7.4 by PAMPA; type: ADME; conditions: read-out: permeability
Mus musculus [5] = experiment: Inhibition of MET autophosphorylation at Y1349 in human MKN45 cells xenografted in mouse at 100 mg/kg, po up to 8 hrs; type: functional, organism-based; set-up: dose 100 mg/kg; conditions: MKN-45
KARPAS-299 [6] = experiment: Antitumor activity against human KARPAS299 xenograft model assessed as tumor growth inhibition up to 200 mg/kg qd; type: functional, organism-based; set-up: dose 200 mg/kg
[7] = target: Tyrosine-protein kinase ABL1 (Homo sapiens) (UniProt P00519); conditions: 1 uM
Description: Inhibition of Abl (unknown origin) autophosphorylation at 1 uM

Homo sapiens [8] = organism: Homo sapiens; conditions: 1 uM
Description: Inhibition of aurora kinase (unknown origin) autophosphorylation at 1 uM

[9] = target: Tyrosine-protein kinase ABL2 (Homo sapiens) (UniProt P42684); conditions: 1 uM
Description: Inhibition of ARG (unknown origin) autophosphorylation at 1 uM

[10] = target: Hepatocyte growth factor receptor (Homo sapiens, UniProt P08581); conditions: 1 uM
Description: Inhibition of cMET (unknown origin) autophosphorylation at 1 uM

Mus musculus [11] = experiment: Toxicity in human MKN45 cells xenografted nu/nu CD1 mouse model assessed as body weigh loss at 200 mg/kg, po qd for 14 days; type: organism-based, MKN-45; set-up: dose 200 mg/kg, route oral; conditions: in vivo, 336 h
Mus musculus [12] = experiment: Toxicity in human MKN45 cells xenografted nu/nu CD1 mouse model assessed as body weigh loss at 100 mg/kg, po qd for 14 days; type: organism-based, MKN-45; set-up: dose 100 mg/kg, route oral; conditions: in vivo, 336 h
Mus musculus [13] = experiment: Toxicity in human MKN45 cells xenografted nu/nu CD1 mouse model assessed as body weigh loss at 50 mg/kg, po qd for 14 days; type: organism-based, MKN-45; set-up: dose 50 mg/kg, route oral; conditions: in vivo, 336 h
Mus musculus [14] = experiment: Toxicity in human MKN45 cells xenografted nu/nu CD1 mouse model assessed as body weigh loss at 25 mg/kg, po qd for 14 days; type: organism-based, MKN-45; set-up: dose 25 mg/kg, route oral; conditions: in vivo, 336 h
MKN-45 [15] = experiment: Antitumor activity against human MKN45 cells xenografted in nu/nu CD1 mouse model assessed as maximum tumor regression at 200 mg/kg, po qd for 14 days; type: functional
MKN-45 [16] = experiment: Antitumor activity against human MKN45 cells xenografted in nu/nu CD1 mouse model assessed as maximum tumor regression at 100 mg/kg, po qd for 14 days; type: functional
MKN-45 [17] = experiment: Antitumor activity against human MKN45 cells xenografted in nu/nu CD1 mouse model assessed as maximum tumor regression at 50 mg/kg, po qd for 14 days; type: functional
MKN-45 [18] = experiment: Antitumor activity against human MKN45 cells xenografted in nu/nu CD1 mouse model assessed as maximum tumor regression at 25 mg/kg, po qd for 14 days; type: functional
MKN-45 [19] = experiment: Antitumor activity against human MKN45 cells xenografted in nu/nu CD1 mouse model assessed as tumor growth inhibition at 200 mg/kg, po qd for 14 days; type: functional; conditions: MKN-45, 336 h, read-out: TGI
MKN-45 [20] = experiment: Antitumor activity against human MKN45 cells xenografted in nu/nu CD1 mouse model assessed as tumor growth inhibition at 100 mg/kg, po qd for 14 days; type: functional; conditions: MKN-45, 336 h, read-out: TGI
MKN-45 [21] = experiment: Antitumor activity against human MKN45 cells xenografted in nu/nu CD1 mouse model assessed as tumor growth inhibition at 50 mg/kg, po qd for 14 days; type: functional; conditions: MKN-45, 336 h, read-out: TGI
MKN-45 [22] = experiment: Antitumor activity against human MKN45 cells xenografted in nu/nu CD1 mouse model assessed as tumor growth inhibition at 25 mg/kg, po qd for 14 days; type: functional; conditions: MKN-45, 336 h, read-out: TGI
[23] = Oral bioavailability in CD1 mouse at 20 mg/kg; type: ADME, organism-based; conditions: in vivo
[24] = Cmax in CD1 mouse at 20 mg/kg, po; type: ADME, organism-based; set-up: dose 20 mg/kg, route oral; conditions: in vivo
[25] = AUC (0 to last) in CD1 mouse at 20 mg/kg, po; type: ADME, organism-based; set-up: dose 20 mg/kg, route oral, time 0 - last; conditions: plasma
Cytochrome P450 3A4 = Cytochrome P450 3A4 (Homo sapiens, UniProt P08684); experiment: Inhibition of CP3A4 (unknown origin)
[26] = Half life in CD1 mouse at 2 mg/kg, iv; type: ADME, organism-based; set-up: dose 2 mg/kg, route intravenous; conditions: in vivo
[27] = Volume of distribution at steady state in CD1 mouse at 2 mg/kg, iv; type: ADME, organism-based; set-up: dose 2 mg/kg, route intravenous; conditions: in vivo, read-out: Vdss
[28] = Clearance in CD1 mouse at 2 mg/kg, iv; type: ADME, organism-based; set-up: dose 2 mg/kg, route intravenous; conditions: in vivo
KARPAS-299 [29] = experiment: Antitumor activity against human KARPAS299 xenograft model assessed as tumor growth inhibition at 50 mg/kg qd; type: functional; conditions: read-out: TGI

For `CC(Oc1c(N)ncc2c(-c3cnn(C4CCNCC4)c3)coc12)c1cccc(F)c1Cl` (racemic), the IC50 (MKN-45 [1]) was 5100 nM.
With `OCCn1cc(-c2cnc3nnn(Cc4ccc5ncccc5c4)c3n2)cn1` the Ratio IC50 (Homo sapiens [2]) was 8 and the Ratio IC50 (Homo sapiens [3]) was over 600.
For `CC(Oc1c(N)ncc2c(-c3cnn(C4CCNCC4)c3)coc12)c1c(Cl)cc(Cl)cc1Cl` (racemic), the IC50 (MKN-45 [1]) was 3600 nM.
With `CC(=O)N1CC=C(c2coc3c(O[C@H](C)c4c(Cl)ccc(F)c4Cl)c(N)ncc23)CC1` the Papp [4] was 199 ×10⁻⁶ cm/s and the IC50 (MKN-45 [1]) was 330 nM.
Compound `C[C@@H](Oc1c(N)ncc2c(-c3ccncc3)coc12)c1c(Cl)ccc(F)c1Cl` has an IC50 (MKN-45 [1]) of 900 nM.
In the case of `CNC(=O)N1CC=C(c2coc3c(O[C@H](C)c4c(Cl)ccc(F)c4Cl)c(N)ncc23)CC1`, the IC50 (MKN-45 [1]) is reported as 190 nM.
With `CC(Oc1c(N)ncc2c(-c3cnn(C4CCNCC4)c3)coc12)c1c(Br)ccc(F)c1Cl` (racemic) the IC50 (MKN-45 [1]) was 510 nM.
Work on `CC(=O)N1CCC(n2cc(-c3coc4c(O[C@H](C)c5c(Cl)ccc(F)c5Cl)c(N)ncc34)cn2)CC1` yielded a Papp [4] of 318 ×10⁻⁶ cm/s and an IC50 (MKN-45 [1]) of 670 nM.
In the case of `C[C@@H](Oc1c(N)ncc2c(C3=CCN(C(N)=O)CC3)coc12)c1c(Cl)ccc(F)c1Cl`, the inhibition (Mus musculus [5]) is reported as “Active”, the TGI (KARPAS-299 [6]) is reported as “inactive” and the Ratio IC50 (Homo sapiens [3]) is reported as 3. The inhibition [7] was over 50%, the inhibition (Homo sapiens [8]) was over 50% and the inhibition [9] was over 50%. For the same compound, the inhibition [10] was over 50%.
For `Nc1ncc2c(-c3cnn(C4CCNCC4)c3)coc2c1OCc1c(Cl)ccc(F)c1Cl`, the IC50 (MKN-45 [1]) was 8600 nM.
With `CNC(=O)c1coc2c(O[C@H](C)c3c(Cl)ccc(F)c3Cl)c(N)ncc12` the IC50 (MKN-45 [1]) was 3500 nM.
`C[C@@H](Oc1c(N)ncc2c(C3=CCN(C(=O)N(C)C)CC3)coc12)c1c(Cl)ccc(F)c1Cl` showed an IC50 (MKN-45 [1]) of 510 nM.
In the case of `CC(Oc1c(N)ncc2c(-c3cnn(C4CCNCC4)c3)coc12)c1cc(F)ccc1Cl` (racemic), the IC50 (MKN-45 [1]) is reported as 6400 nM.
`CCCC(Oc1c(N)ncc2c(-c3cnn(C4CCNCC4)c3)coc12)c1c(Cl)ccc(F)c1Cl` (racemic) showed an IC50 (MKN-45 [1]) of 2700 nM.
Compound `CS(=O)(=O)O.C[C@@H](Oc1c(N)ncc2c(C3=CCN(C(N)=O)CC3)coc12)c1c(Cl)ccc(F)c1Cl` has an Activity (Mus musculus [11]) of 3%, an Activity (Mus musculus [12]) of 3% and an Activity (Mus musculus [13]) of 2%. The Activity (Mus musculus [14]) was 6%, the Activity (MKN-45 [15]) was 49% and the Activity (MKN-45 [16]) was 27%. It also gave an Activity (MKN-45 [17]) of 0%, an Activity (MKN-45 [18]) of 0% and an inhibition in vivo at 200 mg/kg (MKN-45 [19]) of 100%. For the same compound, the inhibition in vivo at 100 mg/kg (MKN-45 [20]) was 100%, the inhibition in vivo at 50 mg/kg (MKN-45 [21]) was 51% and the inhibition in vivo at 25 mg/kg (MKN-45 [22]) was 13%. The bioavailability [23] was 83%, the Cmax [24] was 4800 nM and the AUC(0-t) [25] was 5420 ng·h/mL.
In the case of `C[C@H](Oc1c(N)ncc2c(-c3cnn(C4CCNCC4)c3)coc12)c1c(Cl)ccc(F)c1Cl`, the IC50 (MKN-45 [1]) is reported as 4500 nM.
Compound `CC(Oc1c(N)ncc2c(-c3cnn(C4CCNCC4)c3)coc12)c1c(Cl)c(F)cc(F)c1Cl` (racemic) has an IC50 (MKN-45 [1]) of 480 nM.
`C[C@@H](Oc1c(N)ncc2c(-c3cn[nH]c3)coc12)c1c(Cl)ccc(F)c1Cl` showed an IC50 (MKN-45 [1]) of 3300 nM.
For `C[C@@H](Oc1c(N)ncc2c(-c3cnn(C4CCNCC4)c3)coc12)c1c(Cl)ccc(F)c1Cl.Cl.Cl.Cl.Cl`, the bioavailability [23] was 35%, the Cmax [24] was 150 nM and the AUC(0-t) [25] was 509 ng·h/mL.
With `C#CCC(Oc1c(N)ncc2c(-c3cnn(C4CCNCC4)c3)coc12)c1c(Cl)ccc(F)c1Cl` (racemic) the IC50 (Cytochrome P450 3A4) was 1600 nM and the IC50 (MKN-45 [1]) was 360 nM.
Work on `C[C@@H](Oc1c(N)ncc2c(C3=CCNCC3)coc12)c1c(Cl)ccc(F)c1Cl` yielded an IC50 (MKN-45 [1]) of 450 nM.
For `C[C@@H](Oc1c(N)ncc2c(-c3cnn(C4CCNCC4)c3)coc12)c1c(Cl)ccc(F)c1Cl`, the half-life [26] was 36 min, the Vd [27] was 12 L/kg and the clearance [28] was 227 mL/min/kg. It also gave an IC50 (MKN-45 [1]) of 300 nM.
Work on `C[C@@H](Oc1c(N)ncc2c(-c3ccccn3)coc12)c1c(Cl)ccc(F)c1Cl` yielded an IC50 (MKN-45 [1]) of 4600 nM.
`COc1ccc(Cl)c([C@@H](C)Oc2c(N)ncc3c(-c4cnn(C5CCNCC5)c4)coc23)c1Cl` showed an IC50 (MKN-45 [1]) of 1600 nM.
Compound `CCC(Oc1c(N)ncc2c(-c3cnn(C4CCNCC4)c3)coc12)c1c(Cl)ccc(F)c1Cl` (racemic) has an IC50 (MKN-45 [1]) of 3600 nM.
With `COC(=O)N1CC=C(c2coc3c(O[C@H](C)c4c(Cl)ccc(F)c4Cl)c(N)ncc23)CC1` the IC50 (MKN-45 [1]) was 850 nM.
Work on `C[C@@H](Oc1cc(-c2cnn(C3CCNCC3)c2)cnc1N)c1c(Cl)ccc(F)c1Cl` [CRIZOTINIB] yielded an inhibition in vivo at 50 mg/kg (KARPAS-299 [29]) of 96%, a Ratio IC50 (Homo sapiens [2]) of 8 and a Ratio IC50 (Homo sapiens [3]) of over 600.
`CC(Oc1c(N)ncc2c(-c3cnn(C4CCNCC4)c3)coc12)c1c(Cl)ccc(F)c1Cl` (racemic) showed an IC50 (Cytochrome P450 3A4) of over 20000 nM and an IC50 (MKN-45 [1]) of 570 nM.
`CC(Oc1c(N)ncc2c(-c3cnn(C4CCNCC4)c3)coc12)c1c(Cl)ccc(Cl)c1Cl` (racemic) gave an IC50 (MKN-45 [1]) of 1300 nM.
`C[C@@H](Oc1c(N)ncc2c(C3CCNCC3)coc12)c1c(Cl)ccc(F)c1Cl` showed an IC50 (MKN-45 [1]) of 3100 nM.
Work on `CC(Oc1c(N)ncc2c(-c3cnn(C4CCNCC4)c3)coc12)c1c(Cl)cccc1Cl` (racemic) yielded an IC50 (MKN-45 [1]) of 2000 nM.
For `C[C@@H](Oc1c(N)ncc2c(-c3cccnc3)coc12)c1c(Cl)ccc(F)c1Cl`, the IC50 (MKN-45 [1]) was 2700 nM.
With `C[C@@H](Oc1c(N)ncc2c(-c3ccccc3)coc12)c1c(Cl)ccc(F)c1Cl` the IC50 (MKN-45 [1]) was 11000 nM.
